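Five compound concentrations were applied to cells in 96-well plates for 48 hours; endpoints were derived by simple linear interpolation of the resulting dose-response curve. TGI is the concentration that stops growth completely.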
What follows are compounds tested on M19-MEL melanoma (assay: NCI tumour cell line growth inhibition, 48 h).

Point of comparison: `CC(C)[Si](OCC1CC(C#N)OC(C)(C)O1)(C(C)C)C(C)C` (stereo not drawn), TGI 76.9 µM. Against it:
- N#C/C(=C\c1ccc2[nH]ccc2c1)C(=O)c1ccc(O)c(O)c1 — higher, > 100 µM
- CC(=O)Nc1ccc(-c2nnc(SCC(=O)Nc3ccc(Cl)cc3)o2)cc1 — 1.7-fold lower, 45.4 µM
- COc1ccc2c([nH]c3c(O)c(-c4c(C)cc5c([nH]c6c(CC=C(C)C)c(OC)ccc65)c4O)c(C)cc32)c1CC=C(C)C — higher, > 100 µM

These compounds were tested on UACC-257 melanoma (assay: NCI tumour cell line growth inhibition, 48 h).

Point of comparison: `CC(=O)Nc1ccc(-c2nnc(SCC(=O)Nc3ccc(Cl)cc3)o2)cc1`, TGI 40.9 µM. Against it:
- O=c1c2ccccc2nc(-c2ccccc2)n1NC(=S)Nc1cccc(Cl)c1 — higher, > 100 µM
- CCOC(=O)CC(NC(=O)c1ccc(N=NN(C)C)cc1)C(=O)OCC (stereo not drawn) — higher, > 100 µM
- CN(C)CN(C)c1nc(N(C)C)nc(N(C)CN(C)C)n1 — higher, > 100 µM
- CC(C)[Si](OCC1CC(C#N)OC(C)(C)O1)(C(C)C)C(C)C (stereo not drawn) — within 1.5-fold, 42.7 µM
- N#C/C(=C\c1ccc2[nH]ccc2c1)C(=O)c1ccc(O)c(O)c1 — higher, > 100 µM
- FC(F)(F)c1ccc2nc(Sc3ccc4ccccc4c3)cnc2c1 — higher, > 100 µM
- O=P(O)(O)CN1CCNCCN(CP(=O)(O)O)CC1 — higher, > 100 µM
- COc1ccc2c([nH]c3c(O)c(-c4c(C)cc5c([nH]c6c(CC=C(C)C)c(OC)ccc65)c4O)c(C)cc32)c1CC=C(C)C — higher, > 100 µM
- COc1ccc(CNc2nc3ccccc3nc2C(=O)O)cc1 — higher, > 100 µM
- c1cc2c(cc1C1=NCCN1)c1cc(C3=NCCN3)ccc1n2CC1CCCCC1 — within 1.5-fold, 59.3 µM
- C=C1CC2[C@H](C)C(=O)CCC2(C)C2=C1C1CCC(C(C)CCC(=C)C(C)C(=O)O)C1(C)CC2=O (stereo partly drawn) — 2.3-fold higher, 96 µM
- COc1ccc(-n2cnc3c(NC(Cc4ccccc4)C(=O)O)ncnc32)cc1 (stereo not drawn) — higher, > 100 µM
- CC(=O)OCC1OC(n2c(-c3ccccc3)c(N=Nc3ccc(C)cc3)c(C)c(C#N)c2=S)C(OC(C)=O)C(OC(C)=O)C1OC(C)=O (stereo not drawn) — higher, > 100 µM
- CC(C)NC(=O)OCc1c(COC(=O)NC(C)C)c(-c2cc[n+](COC(=O)C3CCCCC3)cc2)n2c1CCC2 — higher, > 100 µM
- O=S(=O)(O)c1cc(S(=O)(=O)O)c2c(N=Nc3ccc(N=Nc4ccccc4)cc3)c(O)ccc2c1 — higher, > 100 µM
- CC(C)(C)C1=C(Br)C(OC(=O)C(F)(F)F)(C(C)(C)C)OP1(=O)c1ccccc1 (stereo not drawn) — higher, > 100 µM
- CC(C)=NOC(=O)Nc1cccc2c1OCO2 — higher, > 100 µM
- Cc1ccc(/C=C2/N=C(N/N=C\c3ccccc3)NC2=O)cc1 — higher, > 100 µM
- O=C(Nc1ccc2ccccc2c1)c1cc2cc(CCl)ccc2oc1=O — higher, > 100 µM
- CC(C)(C)[Si](C)(C)OC[C@H](/C=C\CCCC(=O)O)NC1(c2ccccc2)c2ccccc2-c2ccccc21 — within 1.5-fold, 43.4 µM
- CN(C)CCNC(=O)c1c(O)ccc2c1c1c(n2CCc2ccccc2)C(=O)c2ccccc2C1=O — 3.9-fold lower, 10.4 µM
- N#Cc1nc(-c2cccc(-c3nc(C#N)c(N)o3)n2)oc1N — higher, > 100 µM
- O=C1C(c2c(O)[nH]c3ccc(S(=O)(=O)NCCO)cc23)=Nc2ccccc21 — higher, > 100 µM
- Cc1csc(-n2c(C)nc3cc(Cl)ccc3c2=O)n1 — higher, > 100 µM

What follows are compounds tested on MDA-MB-435 (assay: NCI tumour cell line growth inhibition, 48 h).

Point of comparison: `CN(C)CCNC(=O)c1c(O)ccc2c1c1c(n2CCc2ccccc2)C(=O)c2ccccc2C1=O`, TGI 5.08 µM. Against it:
- N#C/C(=C\c1ccc2[nH]ccc2c1)C(=O)c1ccc(O)c(O)c1 — higher, > 100 µM
- FC(F)(F)c1ccc2nc(Sc3ccc4ccccc4c3)cnc2c1 — higher, > 100 µM
- O=P(O)(O)CN1CCNCCN(CP(=O)(O)O)CC1 — higher, > 100 µM
- COc1ccc(CNc2nc3ccccc3nc2C(=O)O)cc1 — higher, > 100 µM
- c1cc2c(cc1C1=NCCN1)c1cc(C3=NCCN3)ccc1n2CC1CCCCC1 — 9.9-fold higher, 50.3 µM
- C=C1CC2[C@H](C)C(=O)CCC2(C)C2=C1C1CCC(C(C)CCC(=C)C(C)C(=O)O)C1(C)CC2=O (stereo partly drawn) — higher, > 100 µM
- COc1ccc(-n2cnc3c(NC(Cc4ccccc4)C(=O)O)ncnc32)cc1 (stereo not drawn) — higher, > 100 µM
- CC(=O)OCC1OC(n2c(-c3ccccc3)c(N=Nc3ccc(C)cc3)c(C)c(C#N)c2=S)C(OC(C)=O)C(OC(C)=O)C1OC(C)=O (stereo not drawn) — 7.2-fold higher, 36.6 µM
- CC(C)NC(=O)OCc1c(COC(=O)NC(C)C)c(-c2cc[n+](COC(=O)C3CCCCC3)cc2)n2c1CCC2 — higher, > 100 µM
- O=S(=O)(O)c1cc(S(=O)(=O)O)c2c(N=Nc3ccc(N=Nc4ccccc4)cc3)c(O)ccc2c1 — higher, > 100 µM
- CC(C)(C)C1=C(Br)C(OC(=O)C(F)(F)F)(C(C)(C)C)OP1(=O)c1ccccc1 (stereo not drawn) — higher, > 100 µM
- CC(C)=NOC(=O)Nc1cccc2c1OCO2 — higher, > 100 µM
- Cc1ccc(/C=C2/N=C(N/N=C\c3ccccc3)NC2=O)cc1 — 14-fold higher, 69.7 µM
- O=C(Nc1ccc2ccccc2c1)c1cc2cc(CCl)ccc2oc1=O — higher, > 100 µM
- CC(C)(C)[Si](C)(C)OC[C@H](/C=C\CCCC(=O)O)NC1(c2ccccc2)c2ccccc2-c2ccccc21 — 7.7-fold higher, 39.3 µM
- N#Cc1nc(-c2cccc(-c3nc(C#N)c(N)o3)n2)oc1N — higher, > 100 µM
- O=C1C(c2c(O)[nH]c3ccc(S(=O)(=O)NCCO)cc23)=Nc2ccccc21 — higher, > 100 µM
- Cc1csc(-n2c(C)nc3cc(Cl)ccc3c2=O)n1 — higher, > 100 µM

Source: PubChem BioAssay (NCI)
